Data from US20240360146A1, “BRUTON'S TYROSINE KINASE AND MUTANT DEGRADER, COMPOSITION AND APPLICATION THEREOF” (HANGZHOU HEALZEN THERAPEUTICS CO., LTD., priority 2021, published 2024).

Legend:
[1] = molecular target: T1, BTK (Homo sapiens, UniProt Q06187); experiment: BTK degradation activity test in Mino cells; type: cell-based; details: 16 h incubation, Western blot or Elisa
T1 construct: endogenous in cells; host or cells: Mino cells
Method in brief: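 DC50 derived by curve fitting of BTK degradation rates versus untreated control across compound concentrations. Mino cells were exposed for 16 h; BTK levels in lysates, normalised via BCA protein, measured by Western blot or ELISA.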

[2] = test system: Mino cells; experiment: Inhibitory activity on Mino cell proliferation (MTS); type: cell-based; details: Homo sapiens, 168 h incubation
Method in brief: (§1)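 Cells seeded at 10000/well, treated with compounds from 1000 nM (4-fold, 8 points) for 72 h (OCI-LY10) or 168 h (Mino) at 37° C. MTS added for 2 h, stopped with SDS, absorbance read at 490 and 650 nm; IC50 from dose-response fit.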

[3] = Stability of compounds in human liver microsome; type: in vitro ADME; details: human liver microsomes, NADPH, 37° C., sampling 0-120 min; read-out: Human liver microsome T1/2
Procedure: Compound to be tested: the compound to be tested (1 mg) was dissolved in DMSO (10 mL) to formulate to 0.1 mg/mL.
Internal standard compound: the internal standard compound (1 mg) was dissolved in DMSO (10 mL), 10 μL was taken and diluted to 10 mL to formulate to 100 ng/mL.
NADPH solution: NADPH (2.08 mg) was dissolved in PBS (50 μL) buffer to formulate to 50 mM.
Under the condition of ice bath, 1 mg of human liver microparticles was add to PBS (1 mL) buffer, then NADPH (20 μL) was added, and incubated at 37° C. for 5 min. 10 μL of the compound to be tested was added, and then samples were taken at 0, 15, 30, 60 and 120 min respectively. 10 μL of the solution was taken with a pipette each time and added to 490 μL of the solution containing the internal standard compound. The resulting solution was vortexed and then placed on ice, and then sampling at another time point continues. All samples were centrifuged at 10,000 rpm for 10 min, and the supernatant was taken for LC/MS testing. The metabolism of the compound in liver microsomes was calculated based on the peak area.

[4] = test system: OCI-LY10 cells; experiment: Inhibitory activity on OCI-LY10 cell proliferation (MTS); type: cell-based; details: Homo sapiens, 72 h
Method in brief: as §1

T1 sequence (Q06187 whole entry): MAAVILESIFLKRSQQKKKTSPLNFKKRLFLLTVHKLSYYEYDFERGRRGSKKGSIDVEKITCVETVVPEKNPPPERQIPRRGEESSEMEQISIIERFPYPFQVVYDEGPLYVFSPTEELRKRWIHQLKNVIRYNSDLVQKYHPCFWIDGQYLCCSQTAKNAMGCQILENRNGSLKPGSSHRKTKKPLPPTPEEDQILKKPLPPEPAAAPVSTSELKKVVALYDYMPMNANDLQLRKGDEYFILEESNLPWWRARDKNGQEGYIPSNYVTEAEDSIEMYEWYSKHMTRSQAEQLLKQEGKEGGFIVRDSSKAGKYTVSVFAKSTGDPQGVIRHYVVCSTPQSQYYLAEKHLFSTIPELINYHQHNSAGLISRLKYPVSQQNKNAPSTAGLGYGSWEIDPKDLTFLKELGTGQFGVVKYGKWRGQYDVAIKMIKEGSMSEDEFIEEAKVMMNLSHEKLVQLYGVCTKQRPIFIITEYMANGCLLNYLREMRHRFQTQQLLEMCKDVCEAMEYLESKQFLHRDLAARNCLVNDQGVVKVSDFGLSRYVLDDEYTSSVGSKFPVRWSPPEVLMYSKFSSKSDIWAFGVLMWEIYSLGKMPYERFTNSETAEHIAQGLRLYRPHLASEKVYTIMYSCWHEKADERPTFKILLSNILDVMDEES

Row | Compound | DC50 [1] [nM] | IC50 [2] [nM] | half-life at 0.97 µg/mL [3] [min] | IC50 [4] [nM]
1 | CN1CCN([C@@H]2CCCN(c3nnc(C(N)=O)c(Nc4ccc(N5CCN(CC6CCN(c7ccc8c(c7)C(=O)N(C7CCC(=O)NC7=O)C8=O)C6)CC5)c(Cl)c4)n3)C2)C1=O (stereo partly drawn) [Compound 133, 5-((3-chloro-4-(4-((1-(2-(2,6-dioxopiperidin-3-yl)-1,3-dioxoisoindolin-5-yl)pyrrolidin-3-yl)methyl)piperazin-1-yl)phenyl)amino)-3-((R)-3-(3-methyl-2-oxoimidazolin-1-yl)piperidin-1-yl)-1,2,4-triazin-6-carboxamide] | < 1 | 3.91 | 31.7 | 0.43
2 | NC(=O)c1nnc(N2CCC[C@@H](N3C(=O)CCC3=O)C2)nc1Nc1ccc(C2CCN(CC3CCN(c4ccc5c(c4)C(=O)N(C4CCC(=O)NC4=O)C5=O)CC3)CC2)cc1 (stereo partly drawn) [Compound 135, 5-((4-(1-((1-(2-(2,6-dioxopiperidin-3-yl)-1,3-dioxoisoindolin-5-yl)piperidin-4-yl)methyl)piperidin-4-yl)phenyl)amino)-3-((R)-3-(2,5-dioxopyrrolidin-1-yl)piperidin-1-yl)-1,2,4-triazin-6-carboxamide] | < 1 | 1.36 | 25 | 0.11
3 | NC(=O)c1nnc(N2CCC[C@@H](N3C(=O)CCC3=O)C2)nc1Nc1ccc(C2CCN(CC3CCN(c4ccc5c(c4)C(=O)N(C4CCC(=O)NC4=O)C5=O)C3)CC2)cc1 (stereo partly drawn) [Compound 136, 5-((4-(1-((1-(2-(2,6-dioxopiperidin-3-yl)-1,3-dioxoisoindolin-5-yl)pyrrolidin-3-yl)methyl)piperidin-4-yl)phenyl)amino)-3-((R)-3-(2,5-dioxopyrrolidin-1-yl)piperidin-1-yl)-1,2,4-triazin-6-carboxamide] | < 1 | 1.61 | 24 | 0.79
4 | CN1C(=O)N([C@@H]2CCCN(c3nnc(C(N)=O)c(Nc4ccc(C5CCN(CC6CCN(c7ccc8c(c7)C(=O)N(C7CCC(=O)NC7=O)C8=O)C6)CC5)cc4)n3)C2)C(=O)C12CC2 (stereo partly drawn) [Compound 137, 5-((4-(1-((1-(2-(2,6-dioxopiperidin-3-yl)-1,3-dioxoisoindolin-5-yl)pyrrolidin-3-yl)methyl)piperidin-4-yl)phenyl)amino)-3-((R)-3-(4-methyl-5,7-dioxo-4,6-diazaspiro[2.4]heptan-6-yl)piperidin-1-yl)-1,2,4-triazin-6-carboxamide] | < 1 | 3.92 | 20 | 0.25
5 | NC(=O)c1nnc(N2CCC[C@@H](N3CCN(CC(F)(F)F)C3=O)C2)nc1Nc1ccc(C2CCN(CC3CCN(c4ccc5c(c4)C(=O)N(C4CCC(=O)NC4=O)C5=O)C3)CC2)cc1 (stereo partly drawn) [Compound 140, 5-((4-(1-((1-(2-(2,6-dioxopiperidin-3-yl)-1,3-dioxoisoindolin-5-yl)pyrrolidin-3-yl)methyl)piperidin-4-yl)phenyl)amino)-3-((R)-3-(2-oxo-3-(2,2,2-trifluoroethyl)imidazolin-1-yl)piperidin-1-yl)-1,2,4-triazin-6-carboxamide] | < 1 | 3.46 | 26.3 | 0.47
6 | NC(=O)c1nnc(N2CC3CC(N4C(=O)c5ccccc5C4=O)C2C3)nc1Nc1ccc(C2CCN(CC3CCN(c4ccc5c(c4)C(=O)N(C4CCC(=O)NC4=O)C5=O)CC3)CC2)cc1 (centres unmarked) [Compound 143, 3-(6-(1,3-dioxoisoindolin-2-yl)-2-azabicyclo[2.2.1]heptan-2-yl)-5-((4-(1-((1-(2-(2,6-dioxopiperidin-3-yl)-1,3-dioxoisoindolin-5-yl)piperidin-4-yl)methyl)piperidin-4-yl)phenyl)amino)-1,2,4-triazin-6-carboxamide] | < 1 | 3.08 | 39.1 | 0.33
7 | NC(=O)c1nnc(N2CC3CC(N4C(=O)c5ccccc5C4=O)C2C3)nc1Nc1ccc(C2CCN(CC3CCN(c4ccc5c(c4)C(=O)N(C4CCC(=O)NC4=O)C5=O)C3)CC2)cc1 (centres unmarked) [Compound 144, 3-(6-(1,3-dioxoisoindolin-2-yl)-2-azabicyclo[2.2.1]heptan-2-yl)-5-((4-(1-((1-(2-(2,6-dioxopiperidin-3-yl)-1,3-dioxoisoindolin-5-yl)pyrrolidin-3-yl)methyl)piperidin-4-yl)phenyl)amino)-1,2,4-triazin-6-carboxamide] | < 1 | 3.49 | 146 | 3.49
8 | CN1CCN([C@@H]2CCCN(c3nnc(C(N)=O)c(Nc4ccc(N5CCN(CC6CCN(c7ccc(N8CCC(=O)NC8=O)cc7)C6)CC5)c(F)c4)n3)C2)C1=O (stereo partly drawn) [Compound 147, 5-((4-(4-((1-(4-(2,4-dioxotetrahydropyrimidin-1(2H)-yl)phenyl)pyrrolidin-3-yl)methyl)piperazin-1-yl)-3-fluorophenyl)amino)-3-((R)-3-(3-methyl-2-oxoimidazolin-1-yl)piperidin-1-yl)-1,2,4-triazin-6-carboxamide] | < 1 | 0.54 | > 30 | 1.48
9 | CN1CCN([C@@H]2CCCN(c3nnc(C(N)=O)c(Nc4ccc(N5CCN(CC6CCN(C(=O)c7ccc(F)c(N8CCC(=O)NC8=O)c7)C6)CC5)c(F)c4)n3)C2)C1=O (stereo partly drawn) [Compound 148, 5-((4-(4-((1-(3-(2,4-dioxotetrahydropyrimidin-1(2H)-yl)-4-fluorobenzoyl)pyrrolidin-3-yl)methyl)piperazin-1-yl)-3-fluorophenyl)amino)-3-((R)-3-(3-methyl-2-oxoimidazolin-1-yl)piperidin-1-yl)-1,2,4-triazin-6-carboxamide] | < 1 | 7.79 | > 30 | 3.21
10 | COc1ccc(C(=O)N2CCC(CN3CCN(c4ccc(Nc5nc(N6CCC[C@@H](N7CCN(C)C7=O)C6)nnc5C(N)=O)cc4F)CC3)C2)cc1N1CCC(=O)NC1=O (stereo partly drawn) [Compound 149, 5-((4-(4-((1-(3-(2,4-dioxotetrahydropyrimidin-1(2H)-yl)-4-methoxybenzoyl)pyrrolidin-3-yl)methyl)piperazin-1-yl)-3-fluorophenyl)amino)-3-((R)-3-(3-methyl-2-oxoimidazolin-1-yl)piperidin-1-yl)-1,2,4-triazin-6-carboxamide] | < 1 | 8.89 | > 30 | 2.6
11 | CN1CCN([C@@H]2CCCN(c3nnc(C(N)=O)c(Nc4ccc(N5CCN(CC6CCN(c7ccc(C(=O)N[C@H]8CCC(=O)NC8=O)nc7)CC6)CC5)c(F)c4)n3)C2)C1=O [Compound 171, 5-((4-(4-((1-(6-(((S)-2,6-dioxopiperidin-3-yl)carbamoyl)pyridin-3-yl)piperidin-4-yl)methyl)piperazin-1-yl)-3-fluorophenyl)amino)-3-((R)-3-(3-methyl-2-oxoimidazolidin-1-yl)piperidin-1-yl)-1,2,4-triazin-6-carboxamide] | < 1 | 3.43 | > 30 | 2.65
12 | CN1CCN([C@@H]2CCCN(c3nnc(C(N)=O)c(Nc4ccc(N5CCN(CC6CCN(c7ccc(C(=O)N[C@H]8CCC(=O)NC8=O)c(F)c7)CC6)CC5)c(F)c4)n3)C2)C1=O [Compound 172, 5-((4-(4-((1-(4-(((S)-2,6-dioxopiperidin-3-yl)carbamoyl)-3-fluorophenyl)piperidin-4-yl)methyl)piperazin-1-yl)-3-fluorophenyl)amino)-3-((R)-3-(3-methyl-2-oxoimidazolidin-1-yl)piperidin-1-yl)-1,2,4-triazin-6-carboxamide] | < 1 | 6.2 | > 30 | 2.39
13 | CN1CCN([C@@H]2CCCN(c3nnc(C(N)=O)c(Nc4ccc(N5CCN(CC6CCN(c7ccc(N8CCC(=O)NC8=O)nc7)CC6)CC5)c(F)c4)n3)C2)C1=O [Compound 195, (R)-5-((4-(4-((1-(6-(2,4-dioxotetrahydropyrimidin-1(2H)-yl)pyridin-3-yl)piperidin-4-yl)methyl)piperazin-1-yl)-3-fluorophenyl)amino)-3-(3-(3-methyl-2-oxoimidazolidin-1-yl)piperidin-1-yl)-1,2,4-triazin-6-carboxamide] | < 1 | 8.53 | > 30 | 1.79
14 | CN1CCN([C@@H]2CCCN(c3nnc(C(N)=O)c(Nc4ccc(N5CCN(CC6CCN(c7ccc(F)c(N8CCC(=O)NC8=O)c7)C6)CC5)c(F)c4)n3)C2)C1=O (stereo partly drawn) [Compound 256, 5-((4-(4-((1-(3-(2,4-dioxotetrahydropyrimidin-1(2H)-yl)-4-fluorophenyl)pyrrolidin-3-yl)methyl)piperazin-1-yl)-3-fluorophenyl)amino)-3-((R)-3-(3-methyl-2-oxoimidazolidin-1-yl)piperidin-1-yl)-1,2,4-triazin-6-carboxamide] | < 1 | 1.87 | > 30 | 1.6
